Where two headings read alike, the source gives them in different places.
Tested on: Mycosphaerella graminicola; Anamorph: Septoria tritici; Bayer Code SEPTTR
Assay: Leaf blotch of wheat, foliar fungicide treatment, one day protectant (1DP) or three day curative (3DC)
Type: in vivo, Septoria tritici on wheat plants (variety Yuma)
Settings: Zymoseptoria tritici, rating of percent disease control
[1] = 24 h, one day protectant (1DP), read-out: SETTTR 1DP 25 ppm
[2] = 24 h, one day protectant (1DP), read-out: SEPTTR 1DP 100 ppm
[3] = 72 h, three day curative (3DC), read-out: SEPTTR 3DC 25 ppm
[4] = 72 h, three day curative (3DC), read-out: SEPTTR 3DC 100 ppm

SMILES | pest or weed control at 25 ppm [1] [%] | pest or weed control at 100 ppm [2] [%] | pest or weed control at 25 ppm [3] [%] | pest or weed control at 100 ppm [4] [%]
COc1ccccc1COc1ncc(F)c(NC(=O)OCc2ccccc2)n1 [Compound 415] | 51 to 75 | 76 to 100 | 76 to 100 | 76 to 100
COc1cccc(COc2ncc(F)c(NCc3ccccc3F)n2)c1 [Compound 416] | 0 to 25 | 0 to 25 | 0 to 25 | 26 to 50
CN(C)/C=N/c1nc(OC(=O)C2CC2)ncc1F [Compound 417] | 76 to 100 | 76 to 100 | 76 to 100 | 76 to 100
COCCOC(=O)Nc1nc(OCc2ccc(C)cc2)ncc1F [Compound 419] | 76 to 100 | 76 to 100 | 76 to 100 | 76 to 100
CC(C)C(=O)Oc1ncc(F)c(/N=C/N(C)C)n1 [Compound 420] | 76 to 100 | 76 to 100 | 76 to 100 | 76 to 100
CN1CCCC/C1=N\c1nc(OCc2ccccc2)ncc1F [Compound 421] | 76 to 100 | 76 to 100 | 76 to 100 | 76 to 100
Cc1ccc(C(=O)Oc2ncc(F)c(/N=C/N(C)C)n2)c(C)c1 [Compound 422] | 76 to 100 | 76 to 100 | 76 to 100 | 76 to 100
Nc1nc(OCc2cccc(O)c2)ncc1F [Compound 423] | 0 to 25 | 0 to 25 | 0 to 25 | 0 to 25
CC(Oc1ncc(F)c(/N=C2\CCCCN2C)n1)c1ccc(F)cc1 (centres unmarked) [Compound 424] | 51 to 75 | 76 to 100 | 51 to 75 | 76 to 100
CN(C)/C=N/c1nc(OC(=O)Oc2cccc(C(F)(F)F)c2)ncc1F [Compound 425] | 76 to 100 | 76 to 100 | 76 to 100 | 76 to 100
C/C(=N\Oc1ncc(F)c(/N=C/N(C)C)n1)c1ccccc1 [Compound 427] | 76 to 100 | 76 to 100 | 76 to 100 | 76 to 100
Nc1nc(OC(=O)c2snc(Cl)c2Cl)ncc1F [Compound 428] | 51 to 75 | 51 to 75 | 26 to 50 | 76 to 100
Nc1nc(OCc2cnc(Cl)s2)ncc1F [Compound 429] | 76 to 100 | 76 to 100 | 76 to 100 | 76 to 100
Nc1cccc(COc2ncc(F)c(N)n2)c1 [Compound 430] | 76 to 100 | 76 to 100 | 76 to 100 | 76 to 100
Cc1cc(COc2ncc(F)c(N)n2)nn1C [Compound 431] | 76 to 100 | 76 to 100 | 76 to 100 | 76 to 100
CC1(COc2ncc(F)c(N)n2)COC1 [Compound 433] | 0 to 25 | 0 to 25 | 0 to 25 | 0 to 25
CC[Si](CC)(CC)Nc1nc(OCc2ccn(C)n2)ncc1F [Compound 434] | 76 to 100 | 76 to 100 | 76 to 100 | 76 to 100
O=C(Nc1nc(OCc2ccccc2)ncc1F)c1ccccc1 [Compound 435] | 76 to 100 | 76 to 100 | 51 to 75 | 76 to 100
N#Cc1cc(COc2ncc(F)c(N)n2)ccn1 [Compound 437] | 0 to 25 | 51 to 75 | 0 to 25 | 51 to 75
Fc1ccccc1CNC(=S)Nc1nc(OCc2ccccc2)ncc1F [Compound 438] | 51 to 75 | 76 to 100 | 0 to 25 | 0 to 25
Cc1cc(C)cc(COc2ncc(F)c(NSc3ccccc3[N+](=O)[O-])n2)c1 [Compound 440] | 0 to 25 | 0 to 25 | 26 to 50 | 0 to 25
CC(C)Oc1cccc(COc2ncc(F)c(N)n2)c1 [Compound 441] | 76 to 100 | 76 to 100 | 76 to 100 | 76 to 100
Nc1nc(OCc2snc(Cl)c2Cl)ncc1F [Compound 442] | 76 to 100 | 76 to 100 | 76 to 100 | 76 to 100
